Experimental data published in patent publication US6716428B1, “Antigenic modification of polypeptides” (The Ohio State University Research Foundation, priority 1999, dated 2004).
Like-named read-outs stand apart in the source and are kept apart here. Ends that are not written are not given here.

Legend:
female baboons = experiment: Fertility rates (matings and pregnancies) of immunized female baboons; type: in vivo, baboon; details: for Fertility Rate (%) / No. Pregnant: female baboons
[1] = system: Ridgeway Osteogenic Sarcoma; experiment: Growth of Ridgeway Osteogenic Sarcoma in immunized AKR mice; type: in vivo
From the text: Sixty mice of the AKR strain were divided at random into a test group and a control group each comprising 30 mice. The test group were then immunized in the same manner as in Examples XXXVI and XXXVII with a vaccine comprising the same conjugate as in those Examples dissolved in Freund's Complete Adjuvant, while the control group simply received the Freund's Adjuvant. Booster Immunizations were given to each group three and seven weeks after the first immunization. […] In the mice in which the tumor survived, tumor volume measurements were made 22, 26, 29, 31, 33, 38, 40 and 43 days after innoculation with the Sarcoma. […] Nevertheless, the results in Table 27 do show a significant reduction in the rate of tumor growth in the conjugate-immunized mice.

Friends' Leukemia Virus = experiment: Survival of immunized SJL/J mice inoculated with Friends' Leukemia Virus; type: in vivo; parameters: concentration or dose not given beside the values
From the text: The mice used in this experiment were six-week old female mice of SJL/J strain. A test group and a control group, each containing approximately 20 mice were selected at random and were immunized in the same manner as in Example XXXVI above, the test animals receiving the vaccine containing the peptide/diphtheria toxoid conjugate and the control group receiving the vaccine containing only the vehicle. However, in this experiment a different immunization schedule was followed: the original immunization was followed by booster immunizations 4, 9, 20 and 29 weeks later. Six weeks after the first immunization (i.e. two weeks after the second immunization) each mouse was injected with approximately 1 million Friends' Leukemia Virus and the mice were observed daily for deaths.

HCG = type: in vivo, rabbit

Conjugate (TCDDPRFQDSSSSKAPPPSLPSPSRLPGPSDTPILPQ; also: conjugated to foreign carrier; listed as Homo sapiens)
Fertility Rate (%) (female baboons; mating cycle 1): 0%
No. Pregnant (female baboons; mating cycle 1): 0
Fertility Rate (%) (female baboons; mating cycle 2): 6.7%
No. Pregnant (female baboons; mating cycle 2): 1
Fertility Rate (%) (female baboons; mating cycle 3): 7.1%
No. Pregnant (female baboons; mating cycle 3): 1
Fertility Rate (%) (female baboons; totals of mating cycles 1-3): 4.6%
No. Pregnant (female baboons; totals of mating cycles 1-3): 2
Mean Tumor Volume - cm^3 ([1]; day 22 of tumor growth): 0.65 cm^3
Mean Tumor Volume - cm^3 ([1]; day 26 of tumor growth): 0.68 cm^3
Mean Tumor Volume - cm^3 ([1]; day 29 of tumor growth): 1.20 cm^3
Mean Tumor Volume - cm^3 ([1]; day 31 of tumor growth): 2.24 cm^3
Mean Tumor Volume - cm^3 ([1]; day 33 of tumor growth): 3.04 cm^3
Mean Tumor Volume - cm^3 ([1]; day 36 of tumor growth): 3.14 cm^3
Mean Tumor Volume - cm^3 ([1]; day 38 of tumor growth): 4.40 cm^3
Mean Tumor Volume - cm^3 ([1]; day 40 of tumor growth): 5.54 cm^3
Mean Tumor Volume - cm^3 ([1]; day 43 of tumor growth): 5.00 cm^3
Survival Rate - % (Friends' Leukemia Virus; 0 days after inoculation with Friends' Leukemia Virus): 100.0%
Survival Rate - % (Friends' Leukemia Virus; 22 days after inoculation): 100.0%
Survival Rate - % (Friends' Leukemia Virus; 29 days after inoculation): 100.0%
Survival Rate - % (Friends' Leukemia Virus; 98 days after inoculation (day of booster immunization)): 100.0%
Survival Rate - % (Friends' Leukemia Virus; 160 days after inoculation): 100.0%
Survival Rate - % (Friends' Leukemia Virus; 163 days after inoculation (day of booster immunization)): 100.0%
Survival Rate - % (Friends' Leukemia Virus; 166 days after inoculation): 100.0%
Survival Rate - % (Friends' Leukemia Virus; 175 days after inoculation): 100.0%
Survival Rate - % (Friends' Leukemia Virus; 180 days after inoculation): 100.0%

NAc-Mur-L.Ala-D.isoGln-L.Ala-Cephalin [CGP 19835]
Mean Antibody Level-^125I-HCG (HCG; as E193, 4 weeks): 286.7 M/L × 10^10
Mean Antibody Level-^125I-HCG (HCG; as E193, 5 weeks): 140.3 M/L × 10^10
Mean Antibody Level-^125I-HCG (HCG; as E193, 6 weeks): 172.0 M/L × 10^10
Mean Antibody Level-^125I-HCG (HCG; as E193, 7 weeks): 123.4 M/L × 10^10
Mean Antibody Level-^125I-HCG (HCG; as E193, 8 weeks): 138.9 M/L × 10^10
Mean Antibody Level-^125I-HCG (HCG; as E193, 9 weeks): 105.2 M/L × 10^10
Mean Antibody Level-^125I-HCG (HCG; as E193, 10 weeks): 151.3 M/L × 10^10
Mean Antibody Level-^125I-HCG (HCG; as E193, 11 weeks): 169.3 M/L × 10^10
Mean Antibody Level-^125I-HCG (HCG; as E193, 12 weeks): 107.8 M/L × 10^10
Mean Antibody Level-^125I-HCG (HCG; in vivo): 19.3 M/L × 10^10

CCCCCCCCCCCCCCCCCC(=O)OCC1OC(O)C(NC(C)=O)C(OC(C)C(=O)NC(C)C(=O)NC(CCC(=O)O)C(N)=O)C1O (stereo not shown) [CGP 18177, NAc-Mur (6-0-stearoyl)-LAla-D.isoGln]
Mean Antibody Level-^125I-HCG (HCG; as E193, 4 weeks): 215.1 M/L × 10^10
Mean Antibody Level-^125I-HCG (HCG; as E193, 5 weeks): 204.6 M/L × 10^10
Mean Antibody Level-^125I-HCG (HCG; as E193, 6 weeks): 218.2 M/L × 10^10
Mean Antibody Level-^125I-HCG (HCG; as E193, 7 weeks): 441.9 M/L × 10^10
Mean Antibody Level-^125I-HCG (HCG; as E193, 8 weeks): 544.9 M/L × 10^10
Mean Antibody Level-^125I-HCG (HCG; as E193, 9 weeks): 456.2 M/L × 10^10
Mean Antibody Level-^125I-HCG (HCG; as E193, 10 weeks): 631.0 M/L × 10^10
Mean Antibody Level-^125I-HCG (HCG; as E193, 11 weeks): 584.0 M/L × 10^10
Mean Antibody Level-^125I-HCG (HCG; as E193, 12 weeks): 270.0 M/L × 10^10
Mean Antibody Level-^125I-HCG (HCG; in vivo): 19.9 M/L × 10^10

CCCCCCCCCCCCCCCCCC(=O)OCC1OC(O)C(NC(C)=O)C(OCC(=O)NC(C)C(=O)NC(CCC(=O)O)C(N)=O)C1O (stereo not shown) [CGP 18741, NAc-ner-Mur (6-0-stearoyl)-L.Ala-D.isoGln]
Mean Antibody Level-^125I-HCG (HCG; as E193, 4 weeks): 9.8 M/L × 10^10
Mean Antibody Level-^125I-HCG (HCG; as E193, 5 weeks): 6.2 M/L × 10^10
Mean Antibody Level-^125I-HCG (HCG; as E193, 6 weeks): 8.9 M/L × 10^10
Mean Antibody Level-^125I-HCG (HCG; as E193, 7 weeks): 81.1 M/L × 10^10
Mean Antibody Level-^125I-HCG (HCG; as E193, 8 weeks): 75.4 M/L × 10^10
Mean Antibody Level-^125I-HCG (HCG; as E193, 9 weeks): 74.9 M/L × 10^10
Mean Antibody Level-^125I-HCG (HCG; as E193, 10 weeks): 121.8 M/L × 10^10
Mean Antibody Level-^125I-HCG (HCG; as E193, 11 weeks): 156.8 M/L × 10^10
Mean Antibody Level-^125I-HCG (HCG; as E193, 12 weeks): 97.6 M/L × 10^10
Mean Antibody Level-^125I-HCG (HCG; in vivo): 5.9 M/L × 10^10

Tetanus Toxoid: carrier protein given alone to the control group
Fertility Rate (female baboons; Mating Cycle 1, CFA): 66.7%
Number Pregnant (female baboons; Mating Cycle 1, CFA): 10
Fertility Rate (female baboons; Mating Cycle 2, CFA): 80.0%
Number Pregnant (female baboons; Mating Cycle 2, CFA): 4
Fertility Rate (female baboons; Mating Cycle 3, CFA): 100.0%
Number Pregnant (female baboons; Mating Cycle 3, CFA): 1
Overall Fertility Rate (female baboons; all matings of three mating cycles, CFA): 71.4%
Total Number Pregnant (female baboons; three mating cycles, CFA): 15
